Source: patent US7833979B2, “Toxin peptide therapeutic agents” (Amgen Inc., priority 2005, dated 2010)

Assays:
[1] = system: IL-2 and IFNg production from anti-CD3 and anti-CD28 stimulated human PBMCs; test: Inhibition of T cell cytokine production following anti-CD3 and anti-CD28 antibody stimulation of PBMCs; assay type: cell-based; conditions: 48 hours
Description: Inhibition of T cell cytokine production following Anti-CD3 and anti-CD28 antibody stimulation of PBMCs. PBMCs were previously isolated from normal human donor Leukopheresis packs, purified by density gradient centrifugation (Ficoll Hypaque), and cryopreserved using INCELL Freezing Medium. PBMCs were thawed (95% viability), washed, and seeded (in RPMI complete medium containing serum replacement, PSG) at 2×10^5 cells per well into 96-well flat bottom plates. Cells were pre-incubated with serially diluted (100 nM-0.003 nM final) ShK[1-35], Fc-L10-ShK[1-35], or Fc control for 1 hour before the addition of aCD3 and aCD28 (2.5 ng/mL and 100 ng/mL respectively) in a final assay volume of […]. Supernatants were collected after 48 hours, and analyzed using the Meso Scale Discovery (MSD) SECTOR™ Imager 6000 (Meso Scale Discovery, Gaithersbury, Md.) to measure the IL-2 and IFNg protein levels by utilizing electrochemiluminescence (ECL). […] of supernatant was added to the MSD multi-spot 96-well plates (each well containing IL-2, TNFa, and IFNg capture antibodies). The plates were sealed and incubated at room temperature on a plate shaker for 1 hour. Then […] of Ruthenium-labeled detection antibodies (1 ug/ml final of IL-2, TNFα, and IFNγ in Antibody Dilution Buffer) and […] of 2×MSD Read Buffer were added. The plates were sealed, covered with tin foil, and incubated at room temperature on a plate shaker for 1 hour. The plates were then read on the SECTOR™ Imager 6000. […] (POC=Percent Of Control of response in the absence of inhibitor).

[2] = target: fixed HEK 293 cells overexpressing Kv1.3 (Homo sapiens, UniProt P22001); conditions: whole cell immunoassay
Description: Parent HEK 293 cells or HEK Kv1.3 cells were plated at 3×10e4 cells/well in poly-D-Lysine coated ninety-six well plates (#35-4461; Becton-Dickinson, Bedford, Mass.). Cells were fixed with formalin (Sigma HT50-1-1 Formalin solution, diluted 1:1 with PBS/0.5% BSA before use) by removing cell growth medium, adding 0.2 ml/well formalin solution and incubating at room temperature for 25 minutes and then washing one time with 100 ul/well of PBS/0.5% BSA. Wells were blocked by addition of 0.3 ml/well of BSA blocker (50-61-00; KPL 10% BSA Diluent/Blocking Solution, diluted 1:1 with PBS; KPL, Gaithersburg, Md.) followed by incubation at room temperature, with shaking, for 3 hr. Plates were washed 2 times with 1×KP Wash Buffer (50-63-00; KPL). Samples were diluted in Dilution Buffer (PBS/0.5% Tween-20) or Dilution Buffer with 1% Male Lewis Rat Serum (RATSRM-M; Bioreclamation Inc., Hicksville, N.Y.) and 0.1 ml/well was added to blocked plates, incubating for 1 hr at room temperature with shaking. […] Absorbance was read at 450 nm on a Molecular Devices SpectroMax 340 (Sunnyvale, Calif.).
Whole cell immunoassay was performed as above with the following modifications. […] Absorbances were read at 405 nm after stopping reactions by addition of 0.1 ml/well of 1% SDS.

[3] = target: HEK 293 cells overexpressing human Kv1.3 (Homo sapiens, UniProt P22001); test: Immunohistochemistry analysis of binding to HEK 293 cells overexpressing human Kv1.3; conditions: 5 ug/ml, fixed cells, confocal microscopy
Description: HEK 293 cells overexpressing human Kv1.3 (HEK Kv1.3) were obtained from BioFocus plc (Cambridge, UK) and maintained per manufacturer's recommendation. The parental HEK 293 cell line was used as a control. Cells were plated on Poly-D-Lysine 24 well plates (#35-4414; Becton-Dickinson, Bedford, Mass.) and allowed to grow to approximately 70% confluence. HEK KV1.3 were plated at 0.5×10e5 cells/well in 1 ml/well of medium. HEK 293 cells were plated at a density of 1.5×10e5 cells/well in 1 ml/well of medium. […] Cells were stained by incubating with 0.2 ml/well of 5 ug/ml Fc-L10-ShK[1-35] in PBS/BSA for 30′ at room temperature. Fc-L10-ShK[1-35] was aspirated and then the cells were washed one time with PBS/0.5% BSA. Detection antibody (Goat F(ab)2 anti-human IgG-phycoerythrin; Southern Biotech Associates, Birmingham, Ala.) was added to the wells at 5 ug/ml in PBS/0.5% BSA and incubated for 30′ at room temperature. Wash cells once with PBS/0.5% BSA and examine using confocal microscopy (LSM 510 Meta Confocal Microscope; Carl Zeiss AG, Germany). […] In disease settings where activated T effector memory cells have been reported to overproduce Kv1.3, this reagent can find utility in both targeting these cells and in their detection.

[4] = system: IL-2 and IFNg production from PMA and anti-CD3 stimulated human PBMCs; test: Inhibition of T cell cytokine production following PMA and anti-CD3 antibody stimulation of PBMCs; assay type: cell-based; conditions: 48 hr
Source text: Inhibition of T cell cytokine production following PMA and anti-CD3 antibody stimulation of PBMCs. PBMC's were previously isolated from normal human donor Leukophoresis packs, purified by density gradient centrifugation (Ficoll Hypaque), cryopreserved in CPZ Cryopreservation Medium Complete (INCELL, MCPZF-100 plus 10% DMSO final). PBMC's were thawed (95% viability), washed, and seeded at 2×10^5 cells per well in culture medium (RPMI medium 1640; GIBCO) supplemented with 10% fetal calf serum, 100 U/ml penicillin, […] streptomycin 2 mM L-glutamine, 100 uM non-essential amino acids, and 20 uM 2-ME) in 96-well flat-bottom tissue culture plates. Cells were pre-incubated with serially diluted (100 nM-0.001 nM final) ShK[1-35], Fc-L10-ShK[1-35] or fc control for 90 min before stimulating for 48 hr with PMA/anti-CD3 (1 ng/ml and 50 ng/ml, respectively) in a final assay volume of 200 ul. Analysis of the assay samples was performed using the Meso Scale Discovery (MSD) SECTOR™ Imager 6000 (Meso Scale Discovery, Gaithersbury, Md.) to measure the IL-2 and IFNg protein levels by utilizing electrochemiluminescence (ECL). […] For each well, 20 ul of Ruthenium-labeled detection antibodies (1 ug/ml final in Antibody Dilution Buffer; […], TNF, IFNγ) and 130 ul of 2×MSD Read Buffer added, final volume 150 ul. […] The plates were then read on the SECTOR™ Imager 6000. […]

[5] = system: T cell proliferation in human PBMCs; test: Inhibition of T cell proliferation (3H-thymidine incorporation) following anti-CD3 and anti-CD28 stimulation of PBMCs; assay type: cell-based; conditions: pre-incubation with anti-human CD32 blocking antibody
Source text: Inhibition of T cell proliferation following anti-CD3 and anti-CD28 antibody stimulation of PBMCs. PBMC's were previously isolated from normal human donor Leukophoresis packs, purified by density gradient centrifugation (Ficoll Hypaque), cryopreserved in CPZ Cryopreservation Medium Complete (INCELL, MCPZF-100 plus 10% DMSO final). PBMC's were thawed (95% viability), washed, and seeded at 2×10^5 cells per well in culture medium (RPMI medium 1640; GIBCO) supplemented with 10% fetal calf serum, 100 U/ml penicillin, […] streptomycin, 2 mM L-glutamine, 100 μM non-essential amino acids, and 20 μM 2-ME) in 96-well flat-bottom tissue culture plates. Cells were pre-incubated with either anti-human CD32 (FcyRII) blocking antibody (per manufacturers instructions EASY SEP Human Biotin Selection Kit #18553, StemCell Technologies Vancouver, BC) or Fc-L10-ShK (100 nM-0.001 nM final) for 45 min. Fc-L10-ShK (100 nM-0.001 nM final) was then added to the cells containing anti-human CD32 blocking antibody while medium was added to the cells containing Fc-L10-ShK. Both sets were incubated for an additional 45 min before stimulating for 48 hr with aCD3/aCD28 (0.2 ng/ml and 100 ng/ml, respectively). Final assay volume was 200 ul. […] Cells were then harvested onto glass fiber filters and radioactivity was measured in a B-scintillation counter.

[6] = system: upregulation of CD40L and IL-2R on CD4+ T cells in human whole blood; test: Ex vivo human whole blood assay, thapsigargin-induced cell surface CD40L and IL-2R on T cells (FACS); assay type: cell-based; conditions: 24 hours
Kv1.3 [7] = target: T1, Kv1.3 (Homo sapiens, UniProt P22001); test: Whole cell patch clamp electrophysiology on HEK293 cells stably expressing human Kv1.3; assay type: cell-based
Kv1.3 [8] = target: T1, Kv1.3; test: IonWorks Quattro automated (population patch clamp) electrophysiology on CHO-Kv1.3 cells; assay type: cell-based; design: expressed in transfected cells; conditions: IonWorks planar patch clamp, average IC50, read-out: Kv1.3 IC50 by IWQ
Description: Assay Plate preparation for electrophysiology. […] Before experiments, each sample was thawed at room temperature and an aliquot (70 to 80 μl) was transferred to a well in a 96-well polypropylene plate. In order to prepare the Assay Plate, several dilutions were made from the pharmacokinetic serum samples to give rise to Test Solutions. Dilutions of serum samples from the pharmacokinetic study were into 10% Phosphate Buffered Saline (PBS, with Ca^2+ and Mg^2+). […] Standard inhibition curves were also prepared in the Assay Plate.
Cell preparation for electrophysiology. CHO cells stably expressing the voltage-activated K^+ channel, Kv1.3 were plated in T-175 tissue culture flasks (at a density of 5×10^6) 2 days before experimentation and allowed to grow to around 95% confluence. […] The mean K^+ current amplitude was measured between 430 and 440 ms and the data were exported to a Microsoft Excel spreadsheet. The amplitude of the K^+ current in the presence of each concentration of the Test Solution or Standard was expressed as a percentage of the K^+ current in control conditions in the same well.
Standard inhibition curves were generated for each standard in various levels of rat serum and expressed as current percent of control (POC) versus log of nM concentration. […]

T1 sequence (P22001 whole entry): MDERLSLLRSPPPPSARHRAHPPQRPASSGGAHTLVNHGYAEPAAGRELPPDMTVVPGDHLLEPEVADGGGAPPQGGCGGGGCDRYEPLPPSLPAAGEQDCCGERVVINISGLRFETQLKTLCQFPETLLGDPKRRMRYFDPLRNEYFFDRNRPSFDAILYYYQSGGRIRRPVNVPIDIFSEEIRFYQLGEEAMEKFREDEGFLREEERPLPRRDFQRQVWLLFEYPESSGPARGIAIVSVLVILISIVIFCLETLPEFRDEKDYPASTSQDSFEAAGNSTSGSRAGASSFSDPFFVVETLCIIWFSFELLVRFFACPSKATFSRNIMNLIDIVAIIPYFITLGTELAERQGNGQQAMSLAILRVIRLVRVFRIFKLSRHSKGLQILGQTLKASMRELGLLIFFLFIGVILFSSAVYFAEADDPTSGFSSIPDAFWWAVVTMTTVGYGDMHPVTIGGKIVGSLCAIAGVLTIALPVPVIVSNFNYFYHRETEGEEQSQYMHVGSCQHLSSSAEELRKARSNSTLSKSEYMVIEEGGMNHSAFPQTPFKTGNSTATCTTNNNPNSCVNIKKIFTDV
Chain of fixed HEK 293 cells overexpressing Kv1.3 (P22001 whole entry): as above
Chain of HEK 293 cells overexpressing human Kv1.3 (P22001 whole entry): as above

| Substance | Inhibition of IFNg production [1] | Inhibition of IL-2 production [1] | Binding response on fixed HEK 293 cells overexpressing Kv1.3 [2] | Binding response on untransfected HEK 293 cells [2] | Binding (staining) to Kv1.3 overexpressing HEK 293 cells [3] | Binding (staining) to untransfected HEK 293 cells [3] | Inhibition of IFNγ production [4] | Inhibition of IL-2 production [4] | Effect of pre-blocking with anti-CD32 (FcR) blocking antibody on inhibition of T cell proliferation [5] | Thapsigargin-induced upregulation of CD40L on T cells in human whole blood [6] | Thapsigargin-induced upregulation of the IL-2R on T cells in human whole blood [6] | IC50 (Kv1.3 [7]; HEK293 cells stably expressing human Kv1.3, mean±s.e.m., estimated, read-out: IC50, block of outward potassium current) | Blockade of human Kv1.3 current (in words) (Kv1.3 [7]; patch clamp electrophysiology) | IC50 (Kv1.3 [8]) |
| --- | --- | --- | --- | --- | --- | --- | --- | --- | --- | --- | --- | --- | --- | --- |
| Fc-L10-ShK[1-35]: Fc region of human IgG1 fused in-frame via L10 linker to Kv1.3 inhibitor peptide ShK[1-35]; SEQ ID NO: 78 | nearly complete | nearly complete | dose-dependent increase in the peptibody binding | does not elicit a response from untransfected HEK 293 cells | binds to Kv1.3 overexpressing HEK 293 cells | little binding to untransfected cells | potently inhibits IL-2 and IFNg production | potently inhibits IL-2 and IFNg production | little effect | suppressed | suppressed | 0.015 ± 0.002 nM | potently blocked human Kv1.3 | – |
| E. coli-derived ShK[2-35]-L-Fc | – | – | – | – | – | – | – | – | – | – | – | – | – | 4.9 nM |
